From US20170327598A1, “SINGLE DOMAIN ANTIBODIES DIRECTED AGAINST INTRACELLULAR ANTIGENS” (SINGH MOLECULAR MEDICINE, LLC, priority 2014, published 2017)
Where “and” joins values, the source holds several entries; their conditions need not be identical. Equal values may be shown once. Read-outs that look alike come from different tables or passages of the source.

Key:
[1] = system: PANC-1 human pancreatic cancer xenograft
[2] = system: MCF-7 human breast tumor xenograft; conditions: for Tumor Volume TV (mm^3), group Mean / Tumor caliper measurement W (mm), individual animal / Tumor Volume TV (mm^3), individual animal / Tumor caliper measurement L (mm), individual animal: 1 mg/kg ip tid × 14
DU145 tumor xenograft = assay: DU145 xenograft study, Example 11
PANC-1 cells = assay: PANC-1 growth inhibition with or without Gemcitabine; conditions: SBT-100 100 μg/ml alone, 72 hours (Table 44)
[3] = 1 mg/kg ip tid × 14 first Day 2 doses

With “Anti-STAT3 VHH13: anti-STAT3 single domain antibody, SEQ ID NO:3; bacterially produced form referred to as SBT-100” the growth inhibition ([1]; 500 μg/kg bw IP QDx14) was “no significant growth inhibition”, the tumor doubling time ([1]; 500 μg/kg bw IP QDx14) was 23.02 days and the “mean tumor size (±SE)” value ([1]; treatment group, day 14 of dosing) was 318.74 ± 29.76. The “% TGD” value [2, 3] was 42%, the “Median TTE” value [2, 3] was 32.9 and the T-C [2, 3] was 9.7. For the same substance, the “Tumor Volume TV (mm^3), group Mean” value ([2]; Day 1) was 117 mm^3, the “Tumor caliper measurement W (mm), individual animal” value (from here on “Tumor caliper measurement W (mm)”) ([2]; Day 1) was 6 mm and the “Tumor Volume TV (mm^3), individual animal” value ([2]; Day 1, 1 mg/kg) was 108 mm^3 (2×) and 126 mm^3 (2×). For the same substance, the “Tumor caliper measurement L (mm), individual animal” value (shortened to “Tumor caliper measurement L (mm)”) ([2]; Day 1, 1 mg/kg) was 6 mm (2×) and 7 mm (2×), the “Tumor Volume TV (mm^3), group Mean” value ([2]; Day 4) was 155.3 mm^3 and the “Tumor Volume TV (mm^3), individual animal” value ([2]; Day 4, 1 mg/kg) was 196 mm^3 and 126 mm^3 and 144 mm^3. The “Tumor caliper measurement L (mm)” value ([2]; Day 4, 1 mg/kg) was 8 mm (2×) and 7 mm, the “Tumor caliper measurement W (mm)” value ([2]; Day 4, 1 mg/kg) was 7 mm and 6 mm (2×) and the “Tumor Volume TV (mm^3), group Mean” value ([2]; Day 8) was 253.7 mm^3. The “Tumor Volume TV (mm^3), individual animal” value ([2]; Day 8, 1 mg/kg) was 320 mm^3 and 196 mm^3 and 245 mm^3, the “Tumor caliper measurement L (mm)” value ([2]; Day 8, 1 mg/kg) was 8 mm and the “Tumor caliper measurement W (mm)” value ([2]; Day 8, 1 mg/kg) was 7 mm. For the same substance, the “Tumor Volume TV (mm^3), group Mean” value ([2]; Day 11) was 307 mm^3, the “Tumor Volume TV (mm^3), individual animal” value ([2]; Day 11, 1 mg/kg) was 405 mm^3 and 196 mm^3 and 320 mm^3 and the “Tumor caliper measurement L (mm)” value ([2]; Day 11, 1 mg/kg) was 8 mm. For the same substance, the “Tumor caliper measurement W (mm)” value ([2]; Day 11, 1 mg/kg) was 9 mm and 7 mm, the “Tumor Volume TV (mm^3), group Mean” value ([2]; Day 15) was 346.5 mm^3 and the “Tumor Volume TV (mm^3), individual animal” value ([2]; Day 15, 1 mg/kg) was 405 mm^3 and 288 mm^3. The “Tumor caliper measurement L (mm)” value ([2]; Day 15, 1 mg/kg) was 9 mm, the “Tumor caliper measurement W (mm)” value ([2]; Day 15, 1 mg/kg) was 9 mm and the “Tumor Volume TV (mm^3), group Mean” value ([2]; Day 18) was 346.5 mm^3. For the same substance, the “Tumor Volume TV (mm^3), individual animal” value ([2]; Day 18, 1 mg/kg) was 405 mm^3 and 288 mm^3, the “Tumor caliper measurement L (mm)” value ([2]; Day 18, 1 mg/kg) was 9 mm and the “Tumor caliper measurement W (mm)” value ([2]; Day 18, 1 mg/kg) was 9 mm. For the same substance, the “Tumor Volume TV (mm^3), group Mean” value ([2]; Day 22) was 477.5 mm^3, the “Tumor Volume TV (mm^3), individual animal” value ([2]; Day 22, 1 mg/kg) was 550 mm^3 and 405 mm^3 and the “Tumor caliper measurement L (mm)” value ([2]; Day 22, 1 mg/kg) was 11 mm. The “Tumor caliper measurement W (mm)” value ([2]; Day 22, 1 mg/kg) was 9 mm, the “Tumor Volume TV (mm^3), group Mean” value ([2]; Day 25) was 634.5 mm^3 and the “Tumor Volume TV (mm^3), individual animal” value ([2]; Day 25, 1 mg/kg) was 864 mm^3 and 405 mm^3. For the same substance, the “Tumor caliper measurement L (mm)” value ([2]; Day 25, 1 mg/kg) was 12 mm, the “Tumor caliper measurement W (mm)” value ([2]; Day 25, 1 mg/kg) was 12 mm and 9 mm and the “Tumor Volume TV (mm^3), group Mean” value ([2]; Day 29) was 799.3 mm^3. The “Tumor Volume TV (mm^3), individual animal” value ([2]; Day 29, 1 mg/kg) was 1099 mm^3 and 500 mm^3, the “Tumor caliper measurement L (mm)” value ([2]; Day 29, 1 mg/kg) was 13 mm and the “Tumor caliper measurement W (mm)” value ([2]; Day 29, 1 mg/kg) was 13 mm. The “Tumor Volume TV (mm^3), group Mean” value ([2]; Day 32) was 500 mm^3, the “Tumor Volume TV (mm^3), individual animal” value ([2]; Day 32) was 500 mm^3 and the “Tumor Volume TV (mm^3), group Mean” value ([2]; Day 36) was 864 mm^3. For the same substance, the “Tumor Volume TV (mm^3), individual animal” value ([2]; Day 36) was 864 mm^3, the “Tumor caliper measurement L (mm)” value ([2]; Day 36) was 12 mm and the “Tumor caliper measurement W (mm)” value ([2]; Day 36) was 12 mm. For the same substance, the “Tumor Volume TV (mm^3), group Mean” value ([2]; Day 39) was 1098.5 mm^3, the “Tumor Volume TV (mm^3), individual animal” value ([2]; Day 39) was 1099 mm^3 and the “Tumor caliper measurement L (mm)” value ([2]; Day 39) was 13 mm. For the same substance, the “Tumor caliper measurement W (mm)” value ([2]; Day 39) was 13 mm, the “% treatment/control” value (DU145 tumor xenograft; 5 mg/kg bw IP BIDx14) was 74.8% and the tumor doubling time (DU145 tumor xenograft; 5 mg/kg bw IP BIDx14) was 18.19 days. The “mean tumor growth inhibition” value (DU145 tumor xenograft; 5 mg/kg bw IP BIDx14, end of the study) was 26.6%, the “mean tumor size (±SE)” value (DU145 tumor xenograft; 5 mg/kg bw IP BIDx14, last day of dosing (Day 14)) was 364.14±51.64 and the “mean tumor size (±S.E.)” value (DU145 tumor xenograft; 5 mg/kg bw IP BIDx14, termination (day 28)) was 601.83±131.51. It also gave an Absorbance (PANC-1 cells) of 0.333.
